Assay results from US6831190B1, “Guanidinomethyl cyclohexane carboxylic acid ester derivatives” (Teikoku Chemical Industries Co., Ltd., priority 1994, dated 2004).
In brackets after ≈: the same amount, converted by molar mass. Where two headings read alike, the source gives them in different places.

Tests used:
Type in all cases: cell-based
[1] = system: Helicobacter pylori ATCC 43504; test: MIC, agar plating dilution (standard method of Japanese Chemotherapy Academy)
Experimental: (§1) 1. Minimum Inhibitory Concentration (MIC) was measured in accordance with the standard method of Japanese Chemotherapy Academy (Chemotherapy, 29: 76-79, 1981). Sensitivity was measured with an agar plating dilution using Brain-Heart Infusion agar (Difco Co.) which was added 0.1% of cyclodextrin. […] of the solutions of the compounds which were obtained in examples of the present invention was prepared by dissolving in dimethylsulfoxide. […] Each of 1 ml of those prepared solutions was dispensed in share, after sterilization, 9 ml of sensitivity measuring medium which is kept at 50° C. was added to each, and they were sufficiently mixed. The mixture was used as a plate for measuring sensitivity. Brain Heart Infusion agar medium (Difco Co.), which was added 0.1% of cyclodextrin, was used as bacteria growing medium, and was cultured under microair at 37° C. for three days, and the number of bacteria thereof was adjusted to about 106/ml. This was used as a bacterial solution for inoculation. The medium was painted in each square about 2 cm with nichromic line loop. The medium was cultured under microair for three days at 37° C.

[2] = system: Helicobacter pylori ATCC 43629; test: as above
Experimental: as §1

[3] = system: Escherichia coli NIH JC-2; test: MIC, standard method of Japanese Chemotherapy Academy; details: Objected Strain 3: Escherichia coli NIH JC-2
Experimental: 1. Minimum Inhibitory Concentration (MIC) was measured in accordance with the standard method of Japanese Chemotherapy Academy (Chemotherapy, 29: 76-79, 1981).

[4] = Objected Strain 1: Helicobacter pylori ATCC 43504
[5] = Objected Strain 2: Helicobacter pylori ATCC 43629
[6] = ATCC43504, Objected Strain 1: Helicobacter pylori ATCC 43504, read-out: MIC
[7] = ATCC43629, Objected Strain 2: Helicobacter pylori ATCC 43629, read-out: MIC

Row | SMILES | MIC [1, 4] | MIC [2, 5] | MIC [3] | MIC [1, 6] | MIC [2, 7] | MIC ([3]; NIHJC2, read-out: MIC)
1 | Cl.N=C(N)NC[C@H]1CC[C@H](C(=O)Oc2ccc3ccccc3c2)CC1 [Compound 4, trans-4-guanidinomethyl cyclohexane carboxylic acid (2-naphthylester)hydrochloride, reference compound] | 25 µg/mL | 25 µg/mL | >25 µg/mL |  |  | 
2 | Cl.N=C(N)NC[C@H]1CC[C@H](C(=O)Oc2ccc(-c3ccc(Br)cc3)cc2)CC1 [Example 4, trans-4-guanidinomethyl cyclohexane carboxylic acid [4-(4-bromophenyl)phenylester].hydrochloride] | 1.56 µg/mL | 0.39 µg/mL | >25 µg/mL |  |  | 
3 | Cl.N=C(N)NC[C@H]1CC[C@H](C(=O)Oc2ccc(OCc3ccccc3)cc2)CC1 [Example 37, trans-4-guanidinomethyl cyclohexane carboxylic acid (4-benzyloxyphenylester).hydrochloride] | 12.5 µg/mL | 3.13 µg/mL | >25 µg/mL |  |  | 
4 | Cl.N=C(N)NC[C@H]1CC[C@H](C(=O)Oc2c(Cl)cc(Cl)cc2-c2ccccc2)CC1 [Example 12, trans-4-guanidinomethyl cyclohexane carboxylic acid (2,4-dicloro-6-phenylphenylester).hydrochloride] | 3.13 µg/mL | 3.13 µg/mL | >25 µg/mL |  |  | 
5 | Cl.N=C(N)NC[C@H]1CC[C@H](C(=O)Oc2c(Cl)cc(-c3ccccc3)cc2Cl)CC1 [Example 13, trans-4-guanidinomethyl cyclohexane carboxylic acid (2,6-dichloro-4-phenylphenylester).hydrochloride] | 12.5 µg/mL | 12.5 µg/mL | >25 µg/mL |  |  | 
6 | CC(C)(C)c1ccc(OC(=O)C2CCC(CNC(=N)N)CC2)cc1 (stereo not drawn) [Compound 7, reference compound] |  |  |  | 25 µg/mL (≈ 75.4 µM) | 12.5 µg/mL (≈ 37.7 µM) | > 25 µg/mL
7 | CS(=O)(=O)O.N=C(N)NC[C@H]1CC[C@H](C(=O)Oc2c(C(=O)OCc3ccc(F)cc3)cc(Br)cc2-c2ccccc2)CC1 [Example 11, trans-4-guanidinomethyl cyclohexane carboxylic acid [4-bromo-2-(4-fluorobenzyloxycarbonyl)-6-phenylphenylester].methanosulforate] | 6.25 µg/mL | 6.25 µg/mL | >25 µg/mL |  |  | 
8 | COc1ccc(-c2ccc(OC(=O)[C@H]3CC[C@H](CNC(=N)N)CC3)cc2)cc1.Cl [Example 5, trans-4-guanidinomethyl cyclohexane carboxylic acid [4-(4-methoxyphenyl)phenylester].hydrochloride] | 3.13 µg/mL | 1.56 µg/mL | >25 µg/mL |  |  | 
9 | Cl.N=C(N)NC[C@H]1CC[C@H](C(=O)Oc2ccc(-c3ccccc3)cc2Cl)CC1 [Example 6, trans-4-guanidinomethyl cyclohexane carboxylic acid (2-chloro-4-phenylphenylester).hydrochloride] | 6.25 µg/mL | 1.56 µg/mL | >25 µg/mL |  |  | 
10 | Cl.N=C(N)NC[C@H]1CC[C@H](C(=O)Oc2ccc(-c3ccc(F)cc3)cc2)CC1 [Example 27, trans-4-guanidinomethyl cyclohexane carboxylic acid[4-(4-fluorophenyl)phenylester].hydrochloride] | 0.78 µg/mL | 1.56 µg/mL | >25 µg/mL |  |  | 
11 | Cl.N=C(N)NC[C@H]1CC[C@H](C(=O)Oc2cccc3ccccc23)CC1 [Compound 3, trans-4-guanidinomethyl cyclohexane carboxylic acid (1-naphthylester)hydrochloride, reference compound] | >25 µg/mL | >25 µg/mL | >25 µg/mL |  |  | 
12 | Cl.N=C(N)NC[C@H]1CC[C@H](C(=O)Oc2cccc(-c3ccccc3)c2)CC1 [Example 1, trans-4-guanidinomethyl cyclohexane carboxylic acid (3-phenylphenylester).hydrochloride] | 12.5 µg/mL | 6.25 µg/mL | >25 µg/mL |  |  | 
13 | CCc1ccc(OC(=O)C2CCC(CNC(=N)N)CC2)cc1 (stereo not drawn) [Compound 6, reference compound] |  |  |  | 25 µg/mL (≈ 82.4 µM) | 25 µg/mL (≈ 82.4 µM) | > 25 µg/mL
14 | Cl.N=C(N)NC[C@H]1CC[C@H](C(=O)Oc2c(C(=O)OCc3ccccc3)cccc2-c2ccccc2)CC1 [Example 9, trans-4-guanidinomethyl cyclohexane carboxylic acid (2-benzyloxycarbonyl-6-phenylphenylester).hydrochloride] | 6.25 µg/mL | 3.13 µg/mL | >25 µg/mL |  |  | 
15 | CS(=O)(=O)O.N=C(N)NC[C@H]1CC[C@H](C(=O)Oc2c(C(=O)OCc3ccc(F)cc3)cccc2-c2ccccc2)CC1 [Example 10, trans-4-guanidinomethyl cyclohexane carboxylic acid [2-(4-fluorobenzyloxycarbonyl)-6-phenylphenylester].methansulfonate] | 6.25 µg/mL | 6.25 µg/mL | >25 µg/mL |  |  | 
16 | Cl.N#Cc1ccc(-c2ccc(OC(=O)[C@H]3CC[C@H](CNC(=N)N)CC3)cc2)cc1 [Example 7, trans4-guanidinomethyl cyclohexane carboxylic acid [4-(4-cyanophenyl)phenylester].hydrochloride] | 3.13 µg/mL | 3.13 µg/mL | >25 µg/mL |  |  | 
17 | N=C(N)NCC1CCC(C(=O)Oc2ccc(C(=O)OCc3ccccc3)cc2)CC1 (stereo not drawn) [Compound 5, reference compound] |  |  |  | 12.5 µg/mL (≈ 30.5 µM) | 6.25 µg/mL (≈ 15.3 µM) | > 25 µg/mL
18 | Cl.N=C(N)NC[C@H]1CC[C@H](C(=O)Oc2ccc(-c3ccc([N+](=O)[O-])cc3)cc2)CC1 [Example 22, trans-4-guanidinomethyl cyclohexane carboxylic acid [4-(4-nitrophenyl)phenylester].hydrochloride] | 1.56 µg/mL | 3.13 µg/mL | >25 µg/mL |  |  | 
19 | Cl.N=C(N)NC[C@H]1CC[C@H](C(=O)Oc2ccccc2-c2ccccc2)CC1 [Compound 2, trans4-guanidinomethyl cyclohexane carboxylic acid (2-phenylphenylester)hydrochloride, reference compound] | 25 µg/mL | 25 µg/mL | >25 µg/mL |  |  | 

More lines, now with the values ahead:

Row | MIC [1, 4] | MIC [2, 5] | MIC [3] | MIC [1, 6] | MIC [2, 7] | MIC ([3]; NIHJC2, read-out: MIC) | SMILES
20 | 0.78 µg/mL | 0.39 µg/mL | >25 µg/mL |  |  |  | Cl.N=C(N)NC[C@H]1CC[C@H](C(=O)Oc2ccc(C=Cc3ccccc3)cc2)CC1 [Example 38, trans-4-guanidinomethyl cyclohexane carboxylic acid (4-styrylphenylester).hydrochloride]
21 | 12.5 µg/mL | 12.5 µg/mL | >25 µg/mL |  |  |  | Cl.N=C(N)NC[C@H]1CC[C@H](C(=O)Oc2ccc(Cc3ccccc3)cc2)CC1 [Example 33, trans-4-guanidinomethyl cyclohexane carboxylic acid (4-benzylphenylester).hydrochloride]
22 | 3.13 µg/mL | 0.78 µg/mL | >25 µg/mL |  |  |  | Cl.N=C(N)NC[C@H]1CC[C@H](C(=O)Oc2ccc3cc(Br)ccc3c2)CC1 [Example 31, trans-4-guanidinomethyl cyclohexane carboxylic acid (6-bromo-2-naphthyl ester).hydrochloride]
23 | 3.13 µg/mL | 0.78 µg/mL | >25 µg/mL |  |  |  | Cl.N=C(N)NC[C@H]1CC[C@H](C(=O)Oc2ccc(C3CCCCC3)cc2)CC1 [Example 32, trans-4-guanidinomethyl cyclohexane carboxylic acid (4-cyclohexyphenylester).hydrochloride]
24 | 12.5 µg/mL | 25 µg/mL | >25 µg/mL |  |  |  | Cl.N=C(N)NC[C@H]1CC[C@H](C(=O)Oc2ccc(Oc3ccccc3)cc2)CC1 [Example 35, trans-4-guanidinomethyl cyclohexane carboxylic acid (4-phenoxyphenylester).hydrochloride]
25 | 6.25 µg/mL | 12.5 µg/mL | >25 µg/mL |  |  |  | Cl.N=C(N)NC[C@H]1CC[C@H](C(=O)Oc2c(Cl)cc(Cl)c3ccccc23)CC1 [Example 29, trans-4-guanidinomethyl cyclohexane carboxylic acid (2,4-dichloro-1-naphthylester).hydrochloride]
26 | 25 µg/mL | 25 µg/mL | >25 µg/mL |  |  |  | CC(C)(c1ccccc1)c1ccc(OC(=O)[C@H]2CC[C@H](CNC(=N)N)CC2)cc1.Cl [Example 34, trans-4-guanidinomethyl cyclohexane carboxylic acid[4-(1-methyl-1-phenylethyl)phenylester].hydrochloride]
27 | 3.13 µg/mL | 3.13 µg/mL | >25 µg/mL |  |  |  | Cl.N=C(N)NC[C@H]1CC[C@H](C(=O)Oc2c(Cl)cc(Cl)c3ccccc23)CC1 [Example 30, trans-4-guanidinomethyl cyclohexane carboxylic acid (2,4-dichloro-1-naphthyleter).hydrochloride]
